# Test results taken from paper PMC6615261, “Repurposing Azithromycin and Rifampicin Against Gram-Negative Pathogens by Combination With Peptidomimetics” (Frontiers in Cellular and Infection Microbiology, 2019).
# Columns and labels:
# E. coli ST131 = test: Potentiation of additional antibiotics (COMPAN1F plates), MIC; format: cell-based, Escherichia coli; conditions: for MIC of antibiotic in presence of peptidomimetic 26: + 0.25 μM peptidomimetic 26; for MIC of antibiotic in presence of peptidomimetic 1: + 0.5 μM peptidomimetic 1; for MIC of antibiotic in presence of peptidomimetic 15: + 0.5 μM peptidomimetic 15; for MIC: Escherichia coli, read-out: MIC of antibiotic alone; for MIC / MIC of antibiotic alone: no peptidomimetic
# Procedure: (§1) Minimal inhibitory concentrations (MICs) of peptidomimetics, antibiotics and their combinations were determined by broth microdilution according to the Clinical Laboratory Standards Institute performance standards (Clinical and Laboratory Standards Institute, [2013]). […] Since rifampicin and azithromycin mainly are used to treat infections with Gram-positive pathogens only CLSI clinical breakpoints were available for such bacteria. […] Potentiation of additional antibiotics by peptidomimetics was determined by using commercial 96-well plates containing varied concentrations of standard antibiotics (COMPAN1F; Trek Diagnostic Systems Inc.). The peptidomimetics were added immediately prior to inoculation with pathogen, and then MICs were determined as above. The MICs of peptidomimetic/antibiotic combinations were determined according to the method above, and the concentration ratios were selected based upon checkerboard results with 2:1 and 1:4 ratio of peptidomimetic with rifampicin or azithromycin, respectively. Minimal bactericidal concentrations (MBCs) were determined by using growth-curve assay plates. MIC plates were prepared as above, and then the plates were incubated at 37°C with continuous shaking. Growth was recorded at 10 min intervals as optical density (OD) at 600 nm during 24 h. At 24 h, for wells without growth, a sample was diluted 10-fold in sterile saline (0.9% sodium chloride) and plated onto MHA, following CLSI guidelines (Clinical and Laboratory Standards Institute, [1999]).
# K. pneumoniae ST258 = test: as above; format: cell-based, Klebsiella pneumoniae; conditions: for MIC of antibiotic in presence of peptidomimetic 1: + 1 μM peptidomimetic 1; for MIC of antibiotic in presence of peptidomimetic 15: + 1 μM peptidomimetic 15; for MIC of antibiotic in presence of peptidomimetic 26: + 1 μM peptidomimetic 26; for MIC: Klebsiella pneumoniae, read-out: MIC of antibiotic alone; for MIC / MIC of antibiotic alone: no peptidomimetic
# Procedure: as §1
Molecule,MIC of antibiotic in presence of peptidomimetic 26 (E. coli ST131),MIC of antibiotic in presence of peptidomimetic 1 (E. coli ST131) [µg/mL],MIC of antibiotic in presence of peptidomimetic 15 (E. coli ST131) [µg/mL],MIC (E. coli ST131) [µg/mL],MIC of antibiotic in presence of peptidomimetic 1 (K. pneumoniae ST258) [µg/mL],MIC of antibiotic in presence of peptidomimetic 15 (K. pneumoniae ST258) [µg/mL],MIC of antibiotic in presence of peptidomimetic 26 (K. pneumoniae ST258) [µg/mL],MIC (K. pneumoniae ST258) [µg/mL],MIC of antibiotic alone (E. coli ST131) [µg/mL],MIC of antibiotic alone (K. pneumoniae ST258) [µg/mL]
Cc1nnc(SCC2=C(C(=O)O)N3C(=O)[C@@H](NC(=O)Cn4cnnn4)[C@H]3SC2)s1 [Cefazolin],>16 µg/mL,>16,>16,> 16,>16,>16,>16,> 16,,
Amoxicillin/clavulanic acid [Amoxicillin/clavulanic acid (2:1)],8/4,8,8,,>32,>32,>32,,16,>32
C[C@H]1c2cccc(O)c2C(=O)C2=C(O)[C@]3(O)C(=O)C(C(N)=O)=C(O)[C@@H](N(C)C)[C@@H]3[C@@H](O)[C@@H]21 [Doxycycline],≤2 µg/mL,≤2,≤2,≤ 2,≤2,≤2,≤2,4,,
CO/N=C(/C(=O)N[C@@H]1C(=O)N2C(C(=O)O)=C([C@@H]3CCCO3)CS[C@H]12)c1csc(N)n1 [Cefovecin],>8 µg/mL,>8,>8,,>8,>8,>8,,>8,>8
NCC[C@H](O)C(=O)N[C@@H]1C[C@H](N)[C@@H](O[C@H]2O[C@H](CN)[C@@H](O)[C@H](O)[C@H]2O)[C@H](O)[C@H]1O[C@H]1O[C@H](CO)[C@@H](O)[C@H](N)[C@H]1O [Amikacin],8 µg/mL,>32,8,16,32,32,16,32,,
CC1(C)S[C@@H]2[C@H](NC(=O)[C@H](C(=O)O)c3ccsc3)C(=O)N2[C@H]1C(=O)O [Ticarcillin],,>64,>64,> 64,>64,>64,>64,> 64,,
O=C(N[C@H](CO)[C@H](O)c1ccc([N+](=O)[O-])cc1)C(Cl)Cl [Chloramphenicol],≤4 µg/mL,≤4,≤4,≤ 4,>16,>16,>16,> 16,,
CNC(C)C1CCC(N)C(OC2C(N)CC(N)C(OC3OCC(C)(O)C(NC)C3O)C2O)O1 (stereo not drawn) [Gentamicin],>8 µg/mL,>8,>8,> 8,≤1,2,≤1,2,,
CC[C@H]1OC(=O)[C@H](C)[C@@H](O[C@H]2C[C@@](C)(OC)[C@@H](O)[C@H](C)O2)[C@H](C)[C@@H](O[C@@H]2O[C@H](C)C[C@H](N(C)C)[C@H]2O)[C@](C)(O)C[C@@H](C)C(=O)[C@H](C)[C@@H](O)[C@]1(C)O [Erythromycin],,,,> 4,>4,>4,>4,> 4,>4,
Trimethoprim/sulfamethoxazole,>38 µg/mL,>38,>38,,>38,>38,>38,,>38,>38
Penicillin,>8 µg/mL,>8,>8,,>8,>8,>8,,>8,>8
C[C@@H](O)[C@H]1C(=O)N2C(C(=O)O)=C(SCCN=CN)C[C@H]12 [Imipenem],≤1 µg/mL,≤1,≤1,≤ 1,>8,>8,>8,> 8,,
COCC1=C(C(=O)O)N2C(=O)[C@@H](NC(=O)/C(=N\OC)c3csc(N)n3)[C@H]2SC1 [Cefpodoxime],>16 µg/mL,>16,>16,> 16,>16,>16,>16,> 16,,
CCN1CCN(c2cc3c(cc2F)c(=O)c(C(=O)O)cn3C2CC2)CC1 [Enrofloxacin],>2 µg/mL,>2,>2,> 2,>2,>2,>2,> 2,,
CO[C@@]1(NC(=O)Cc2cccs2)C(=O)N2C(C(=O)O)=C(COC(N)=O)CS[C@@H]21 [Cefoxitin],,>16,4,8,>16,>16,>16,> 16,,
CC1(C)S[C@@H]2[C@H](NC(=O)[C@H](N)c3ccccc3)C(=O)N2[C@H]1C(=O)O [Ampicillin],>16 µg/mL,>16,>16,> 16,>16,>16,>16,> 16,,
Cc1onc(-c2ccccc2)c1C(=O)N[C@@H]1C(=O)N2[C@@H]1SC(C)(C)[C@@H]2C(=O)O [Oxacillin],>4 µg/mL,>4,>4,> 4,>4,>4,>4,> 4,,
CO/N=C(\C(=O)N[C@@H]1C(=O)N2C(C(=O)O)=C(CSC(=O)c3ccco3)CS[C@H]12)c1csc(N)n1 [Ceftiofur],,>4,>4,> 4,>4,>4,>4,> 4,,
CN1CCN(c2c(F)cc3c(=O)c(C(=O)O)cn4c3c2OCN4C)CC1 [Marbofloxacin],>2 µg/mL,>2,>2,> 2,>2,>2,>2,> 2,,
